# Reference: ChEMBL document CHEMBL4229556, “Discovery and development of substituted tyrosine derivatives as Bcl-2/Mcl-1 inhibitors” (Bioorg Med Chem, 2018)
# Tests used:
# [1] = biological target: Apoptosis regulator Bcl-2 (Homo sapiens, UniProt P10415); assay: Inhibition of Bid-BH3 peptide binding to Bcl-2 (unknown origin) after 3 hrs by fluorescence polarization method
# Bcl-2-like protein 1 = Bcl-2-like protein 1 (Homo sapiens, UniProt Q07817); assay: Inhibition of Bid-BH3 peptide binding to Bcl-xL (unknown origin) after 3 hrs by fluorescence polarization method
# Bcl-2-like protein 1, sequence (Q07817 whole entry): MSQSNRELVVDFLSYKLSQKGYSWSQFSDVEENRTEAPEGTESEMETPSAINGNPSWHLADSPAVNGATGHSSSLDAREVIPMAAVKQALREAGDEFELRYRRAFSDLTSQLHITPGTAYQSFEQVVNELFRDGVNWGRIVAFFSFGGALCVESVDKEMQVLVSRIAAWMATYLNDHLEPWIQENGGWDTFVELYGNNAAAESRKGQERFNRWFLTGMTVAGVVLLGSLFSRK
# [2] = biological target: Induced myeloid leukemia cell differentiation protein Mcl-1 (Homo sapiens, UniProt Q07820); assay: Inhibition of Bid-BH3 peptide binding to Mcl-1 (unknown origin) after 3 hrs by fluorescence polarization method
# Induced myeloid leukemia cell differentiation protein Mcl-1, sequence (Q07820 whole entry): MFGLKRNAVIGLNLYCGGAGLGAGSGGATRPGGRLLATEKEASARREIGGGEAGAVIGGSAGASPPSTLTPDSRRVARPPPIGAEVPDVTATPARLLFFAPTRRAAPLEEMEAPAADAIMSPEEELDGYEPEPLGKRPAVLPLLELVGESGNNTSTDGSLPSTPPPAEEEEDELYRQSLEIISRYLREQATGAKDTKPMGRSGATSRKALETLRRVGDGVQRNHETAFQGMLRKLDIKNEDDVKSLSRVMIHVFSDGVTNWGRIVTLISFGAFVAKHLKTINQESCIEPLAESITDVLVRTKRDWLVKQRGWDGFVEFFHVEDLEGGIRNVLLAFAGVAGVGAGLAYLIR
# Jurkat [3] = assay: Antiproliferative activity against human Jurkat cells after 72 hrs by MTT assay; type: functional, cell-based
# RS4-11 = assay: Antiproliferative activity against human RS4:11 cells after 72 hrs by MTT assay; type: functional, cell-based; settings: RS4-11, 72 h
# THP-1 = assay: Antiproliferative activity against human THP1 cells after 72 hrs by MTT assay; type: functional, cell-based; settings: THP-1, 72 h
# MOLT-4 = assay: Antiproliferative activity against human MOLT4 cells after 72 hrs by MTT assay; type: functional, cell-based; settings: MOLT-4, 72 h
# HUVEC = assay: Cytotoxicity against HUVEC cells after 72 hrs by MTT assay; type: cell-based; settings: Homo sapiens
# Jurkat [4] = assay: Induction of apoptosis in human Jurkat cells assessed as viable cells at 10 uM after 48 hrs by annexin V-FITC/PI staining based flow cytometry (reference value: 97.4%); type: functional; settings: read-out: Activity
# Jurkat [5] = assay: Induction of apoptosis in human Jurkat cells assessed as early apoptotic cells at 10 uM after 48 hrs by annexin V-FITC/PI staining based flow cytometry (reference value: 2.26%); type: functional
# Jurkat [6] = assay: Induction of apoptosis in human Jurkat cells assessed as late apoptotic cells at 10 uM after 48 hrs by annexin V-FITC/PI staining based flow cytometry (reference value: 0.31%); type: functional
# Jurkat [7] = assay: Induction of apoptosis in human Jurkat cells assessed as necrotic cells at 10 uM after 48 hrs by annexin V-FITC/PI staining based flow cytometry (reference value: 0.008%); type: functional
# Jurkat [8] = assay: Induction of apoptosis in human Jurkat cells assessed as viable cells at 20 uM after 48 hrs by annexin V-FITC/PI staining based flow cytometry (reference value: 97.4%); type: functional; settings: read-out: Activity
# Jurkat [9] = assay: Induction of apoptosis in human Jurkat cells assessed as early apoptotic cells at 20 uM after 48 hrs by annexin V-FITC/PI staining based flow cytometry (reference value: 2.26%); type: functional
# Jurkat [10] = assay: Induction of apoptosis in human Jurkat cells assessed as late apoptotic cells at 20 uM after 48 hrs by annexin V-FITC/PI staining based flow cytometry (reference value: 0.31%); type: functional
# Jurkat [11] = assay: Induction of apoptosis in human Jurkat cells assessed as necrotic cells at 20 uM after 48 hrs by annexin V-FITC/PI staining based flow cytometry (reference value: 0.008%); type: functional
# Jurkat [12] = assay: Induction of apoptosis in human Jurkat cells after 48 hrs by annexin V-FITC/PI staining based flow cytometry; type: functional, cell-based
# Jurkat [13] = assay: Induction of apoptosis in human Jurkat cells assessed as increase in activation of caspase-3 after 48 hrs by fluorometric method; type: functional, cell-based
# Apoptosis regulator Bcl-2, sequence (P10415 whole entry): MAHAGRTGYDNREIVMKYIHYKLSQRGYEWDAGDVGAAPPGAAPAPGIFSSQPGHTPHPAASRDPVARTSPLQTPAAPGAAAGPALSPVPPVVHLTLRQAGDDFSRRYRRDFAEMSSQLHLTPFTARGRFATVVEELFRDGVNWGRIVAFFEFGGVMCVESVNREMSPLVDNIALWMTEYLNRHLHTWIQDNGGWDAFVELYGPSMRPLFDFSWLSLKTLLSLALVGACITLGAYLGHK
smiles,measurement,setting,value
CC(C)(C)OC(=O)N[C@@H](Cc1ccc(OCc2ccc(Oc3ccccc3)cc2)cc1)C(=O)NS(=O)(=O)c1ccc(Cl)c([N+](=O)[O-])c1,Ki,[1]; read-out: Ki,700 nM
O=C(N[C@@H](Cc1ccc(OCc2ccc(-c3ccccc3)cc2)cc1)C(=O)NS(=O)(=O)c1ccc(Cl)c([N+](=O)[O-])c1)c1ccc2ccccc2c1,Ki,[1]; read-out: Ki,570 nM
Cc1ccc(CC(=O)N[C@@H](Cc2ccc(OCc3ccc(-c4ccccc4)cc3)cc2)C(=O)NS(=O)(=O)c2ccc(Cl)c([N+](=O)[O-])c2)cc1,Ki,[1]; read-out: Ki,1100 nM
Cc1ccc(-c2ccc(COc3ccc(C[C@H](NC(=O)OC(C)(C)C)C(=O)NS(=O)(=O)c4ccc(NCC5CCCCC5)c([N+](=O)[O-])c4)cc3)cc2)cc1,Ki,[1],Not Active
Cl.N[C@@H](Cc1ccc(OCc2ccc(-c3ccccc3)cc2)cc1)C(=O)NS(=O)(=O)c1ccc(Cl)c([N+](=O)[O-])c1,Ki,[1],Not Active
Cl.N#Cc1ccc(COc2ccc(C[C@H](N)C(=O)NS(=O)(=O)c3ccc(NC4CCCC4)c([N+](=O)[O-])c3)cc2)cc1,Ki,[1],Not Active
CC(C)(C)OC(=O)N[C@@H](Cc1ccc(OCc2ccc(-c3ccccc3)cc2)cc1)C(=O)NS(=O)(=O)c1ccc(NC2CCCCC2)c([N+](=O)[O-])c1,Ki,[1],Not Active
Cc1ccc(-c2ccc(COc3ccc(C[C@H](NC(=O)OC(C)(C)C)C(=O)NS(=O)(=O)c4ccc(Cl)c([N+](=O)[O-])c4)cc3)cc2)cc1,Ki,[1]; read-out: Ki,390 nM
CC(C)(C)OC(=O)N[C@@H](Cc1ccc(OCc2ccccc2)cc1)C(=O)NS(=O)(=O)c1ccc(Cl)c([N+](=O)[O-])c1,Ki,[1],Not Active
CC(C)(C)OC(=O)N[C@@H](Cc1ccc(OCc2ccc(-c3ccc(Cl)cc3)cc2)cc1)C(=O)NS(=O)(=O)c1ccc(Cl)c([N+](=O)[O-])c1,Ki,[1]; read-out: Ki,580 nM
CC(C)(C)OC(=O)N[C@@H](Cc1ccc(OCc2ccc(-c3ccccc3)cc2)cc1)C(=O)NS(=O)(=O)c1ccc(Cl)c([N+](=O)[O-])c1,Ki,[1]; read-out: Ki,620 nM
same,Ki,Bcl-2-like protein 1,Not Active
same,Ki,[2],450 nM
same,IC50,Jurkat [3],23500 nM
same,IC50,RS4-11,14000 nM
same,IC50,THP-1,27200 nM
same,IC50,MOLT-4,44400 nM
same,IC50,HUVEC,> 50000 nM
CC(C)(C)OC(=O)N[C@@H](Cc1ccc(OCc2ccc(Oc3ccccc3)cc2)cc1)C(=O)NS(=O)(=O)c1ccc(NC2CCCCC2)c([N+](=O)[O-])c1,Ki,[1],Not Active
O=C(N[C@@H](Cc1ccc(OCc2ccc(-c3ccccc3)cc2)cc1)C(=O)NS(=O)(=O)c1ccc(Cl)c([N+](=O)[O-])c1)c1cccnc1,Ki,[1]; read-out: Ki,580 nM
CC(C)(C)OC(=O)N[C@@H](Cc1ccc(OCc2ccc(-c3ccccc3)cc2)cc1)C(=O)NS(=O)(=O)c1ccccc1,Ki,[1]; read-out: Ki,5200 nM
CC(C)(C)OC(=O)N[C@@H](Cc1ccc(OCc2ccc(C#N)cc2)cc1)C(=O)NS(=O)(=O)c1ccc(NCCCc2ccccc2)c([N+](=O)[O-])c1,Ki,[1]; read-out: Ki,800 nM
N#Cc1ccc(COc2ccc(C[C@H](NC(=O)c3ccc4ccccc4c3)C(=O)NS(=O)(=O)c3ccc(NCCCc4ccccc4)c([N+](=O)[O-])c3)cc2)cc1,Ki,[1],Not Active
Cc1ccc(-c2ccc(COc3ccc(C[C@H](NC(=O)OC(C)(C)C)C(=O)NS(=O)(=O)c4ccc(NCCOc5ccccc5)c([N+](=O)[O-])c4)cc3)cc2)cc1,Ki,[1]; read-out: Ki,850 nM
CCCCCC(=O)N[C@@H](Cc1ccc(OCc2ccc(-c3ccccc3)cc2)cc1)C(=O)NS(=O)(=O)c1ccc(Cl)c([N+](=O)[O-])c1,Ki,[1]; read-out: Ki,560 nM
CC(C)(C)OC(=O)N[C@@H](Cc1ccc(OCc2ccccc2)cc1)C(=O)NS(=O)(=O)c1ccc(NCCCc2ccccc2)c([N+](=O)[O-])c1,Ki,[1]; read-out: Ki,1500 nM
O=C(N[C@@H](Cc1ccc(OCc2ccc(-c3ccccc3)cc2)cc1)C(=O)NS(=O)(=O)c1ccc(NC2CCCCC2)c([N+](=O)[O-])c1)c1ccc2ccccc2c1,Ki,[1],Not Active
Cl.N[C@@H](Cc1ccc(OCc2ccccc2)cc1)C(=O)NS(=O)(=O)c1ccc(NCCCc2ccccc2)c([N+](=O)[O-])c1,Ki,[1],Not Active
Cl.N[C@@H](Cc1ccc(OCc2ccc(-c3ccccc3)cc2)cc1)C(=O)NS(=O)(=O)c1ccc(NCCCc2ccccc2)c([N+](=O)[O-])c1,Ki,[1],Not Active
Cl.N#Cc1ccc(COc2ccc(C[C@H](N)C(=O)NS(=O)(=O)c3ccc(NCCCc4ccccc4)c([N+](=O)[O-])c3)cc2)cc1,Ki,[1],Not Active
Cc1ccc(CC(=O)N[C@@H](Cc2ccc(OCc3ccc(-c4ccccc4)cc3)cc2)C(=O)NS(=O)(=O)c2ccc(NCCCc3ccccc3)c([N+](=O)[O-])c2)cc1,Ki,[1]; read-out: Ki,450 nM
same,Ki,Bcl-2-like protein 1,Not Active
same,Ki,[2],190 nM
same,IC50,Jurkat [3],3370 nM
same,IC50,RS4-11,3390 nM
same,IC50,THP-1,6460 nM
same,IC50,MOLT-4,8360 nM
same,IC50,HUVEC,> 50000 nM
same,viability at 10 µM,Jurkat [4],93.8%
same,Activity,Jurkat [5],5.48%
same,Activity,Jurkat [6],0.72%
same,Activity,Jurkat [7],0.037%
same,viability at 20 µM,Jurkat [8],77.8%
same,Activity,Jurkat [9],20.8%
same,Activity,Jurkat [10],1.42%
same,Activity,Jurkat [11],0%
same,Activity,Jurkat [12],Dose-dependent effect
same,Activity,Jurkat [13],Dose-dependent effect
Cl.N[C@@H](Cc1ccc(OCc2ccc(-c3ccccc3)cc2)cc1)C(=O)NS(=O)(=O)c1ccc(NC2CCCCC2)c([N+](=O)[O-])c1,Ki,[1],Not Active
Cc1ccc(CC(=O)N[C@@H](Cc2ccc(OCc3ccccc3)cc2)C(=O)NS(=O)(=O)c2ccc(NCCCc3ccccc3)c([N+](=O)[O-])c2)cc1,Ki,[1]; read-out: Ki,450 nM
same,Ki,Bcl-2-like protein 1,Not Active
same,Ki,[2],500 nM
same,IC50,Jurkat [3],23800 nM
same,IC50,RS4-11,16800 nM
same,IC50,THP-1,23900 nM
same,IC50,MOLT-4,> 50000 nM
same,IC50,HUVEC,> 50000 nM
N#Cc1ccc(COc2ccc(C[C@H](NC(=O)Cc3ccc(-c4ccccc4)cc3)C(=O)NS(=O)(=O)c3ccc(NC4CCCC4)c([N+](=O)[O-])c3)cc2)cc1,Ki,[1]; read-out: Ki,610 nM
CC(C)(C)OC(=O)N[C@@H](Cc1ccc(OCc2ccc(C#N)cc2)cc1)C(=O)NS(=O)(=O)c1ccc(NC2CCCC2)c([N+](=O)[O-])c1,Ki,[1],Not Active
CC(C)(C)OC(=O)N[C@@H](Cc1ccc(OCc2ccc(-c3ccccc3)cc2)cc1)C(=O)NS(=O)(=O)c1ccc(NCCCc2ccccc2)c([N+](=O)[O-])c1,Ki,[1],Not Active
